Key:
Type in all cases: in vivo
[1] = test system: redroot pigweed (Amaranthus retroflexus, AMARE); experiment: Pre-emerge test, greenhouse herbicide activity screening; conditions: phytotoxicity rating 0-100, 14 days after application
Summary of the method: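 Rating: 0–100 visual injury, 14 DAA. Application: acetone, 187 l/ha, 15–1000 g ai/ha, flat-fan track sprayer with nozzle 40–45 cm above soil or canopy. Post-emerge runs used 0.25% v/v surfactant on 2–3 leaf plants.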

[2] = test system: upland rice (Oryza sp., var. Tebonnet, RICE); experiment: Pre-emerge test, crop safety; conditions: crop damage rating 0-100, 14 days after application
Summary of the method: (§1)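 Plants grown in 10 cm pots of sandy loam mix received acetone-dissolved compounds through a moving flat-fan nozzle. Doses ranged from 15 to 1000 g ai/ha. Pre-emerge pots were seeded one day earlier, post-emerge pots 8–21 days earlier. Fourteen days on, each pot was graded 0–100 for damage.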

[3] = test system: field corn (Zea mays L., var. Dekalb 535, CORN); experiment: Pre-emerge test, crop safety; conditions: crop damage rating 0-100, 14 days after application
Summary of the method: as §1

[4] = test system: velvetleaf (Abutilon theophrasti, ABUTH); experiment: Post-emerge test, greenhouse herbicide activity screening; conditions: post-emerge, 14 days after application, rating scale 0-100
Summary of the method: (§2)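 Compounds in acetone were track-sprayed at 187 l/ha, 15–1000 g ai/ha, onto sandy loam pots. Pre-emerge seeds were sown one day before spraying, with surface watering afterwards. Post-emerge plants were at the 2–3 leaf stage and sprayed with 0.25% v/v non-ionic surfactant. Injury was rated 0–100 at 14 days.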

[5] = test system: sicklepod (Cassia obtusifolia, CASOB); experiment: as above; conditions: post-emerge, 14 days after application, rating scale 0-100
Summary of the method: as §2

[6] = test system: redroot pigweed (Amaranthus retroflexus, AMARE); experiment: as above; conditions: post-emerge, 14 days after application
Summary of the method: as §2

[7] = test system: lambsquarters (Chenopodium album, CHEAL); experiment: as above; conditions: post-emerge, 14 days after application, rating scale 0-100
Summary of the method: as §2

[8] = test system: barnyardgrass (Echinochloa crus-galli, ECHCG); experiment: as above; conditions: post-emerge, 14 days after application, rating scale 0-100
Summary of the method: as §2

[9] = test system: johnsongrass (Sorghum halepense, SORHA); experiment: as above; conditions: post-emerge, 14 days after application, rating scale 0-100
Summary of the method: as §2

[10] = test system: large crabgrass (Digitaria sanguinalis, DIGSA); experiment: as above; conditions: post-emerge, 14 days after application, rating scale 0-100
Summary of the method: as §2

[11] = test system: green foxtail (Setaria viridis, SETVI); experiment: as above; conditions: post-emerge, 14 days after application, rating scale 0-100
Summary of the method: as §2

[12] = test system: ivyleaf morningglory (Ipomoea hederacea, IPOHE); experiment: as above; conditions: post-emerge, 14 days after application, rating scale 0-100
Summary of the method: as §2

[13] = test system: upland rice (Oryza sp., var. Tebonnet, RICE); experiment: Post-emerge test, crop safety; conditions: post-emerge, 14 days after application, rating scale 0-100
Summary of the method: (§3)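 Each test used a mechanized track sprayer delivering 187 l/ha of acetone solution at 15–1000 g ai/ha. Post-emerge foliage at 2–3 leaves was treated with added 0.25% v/v non-ionic surfactant and bottom-watered only. Injury was assessed on day 14, where 100 means total kill.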

[14] = test system: field corn (Zea mays L., var. Dekalb 535, CORN); experiment: Post-emerge test, crop safety; conditions: post-emerge, 14 days after application, rating scale 0-100
Summary of the method: as §3

[15] = test system: velvetleaf (Abutilon theophrasti, ABUTH); experiment: Pre-emerge test, greenhouse herbicide activity screening; conditions: phytotoxicity rating 0-100, 14 days after application
Summary of the method: as §1

[16] = test system: sicklepod (Cassia obtusifolia, CASOB); experiment: as above; conditions: phytotoxicity rating 0-100, 14 days after application
Summary of the method: as §1

[17] = test system: lambsquarters (Chenopodium album, CHEAL); experiment: as above; conditions: phytotoxicity rating 0-100, 14 days after application
Summary of the method: as §1

[18] = test system: barnyardgrass (Echinochloa crus-galli, ECHCG); experiment: as above; conditions: phytotoxicity rating 0-100, 14 days after application
Summary of the method: as §1

[19] = test system: johnsongrass (Sorghum halepense, SORHA); experiment: as above; conditions: phytotoxicity rating 0-100, 14 days after application
Summary of the method: as §1

[20] = test system: large crabgrass (Digitaria sanguinalis, DIGSA); experiment: as above; conditions: phytotoxicity rating 0-100, 14 days after application
Summary of the method: as §1

[21] = test system: green foxtail (Setaria viridis, SETVI); experiment: as above; conditions: phytotoxicity rating 0-100, 14 days after application
Summary of the method: as §1

[22] = test system: ivyleaf morningglory (Ipomoea hederacea, IPOHE); experiment: as above; conditions: phytotoxicity rating 0-100, 14 days after application
Summary of the method: as §1

For `Cn1c(C(F)(F)F)cc(=O)n(-c2c(F)cc(Cl)c(OCC#N)c2NC(=O)OCc2ccccc2)c1=O` [4-23], the “Pre-emerge Herbicidal Activity AMARE” value ([1]; 63 g ai/ha) was 100, the “Pre-emerge Herbicidal Activity AMARE” value ([1]; 250 g ai/ha) was 100 and the “Pre-emerge Herbicidal Activity RICE” value ([2]; 63 g ai/ha) was 60. The “Pre-emerge Herbicidal Activity RICE” value ([2]; 250 g ai/ha) was 90, the “Pre-emerge Herbicidal Activity CORN” value ([3]; 63 g ai/ha) was 35 and the “Pre-emerge Herbicidal Activity CORN” value ([3]; 250 g ai/ha) was 90. The “phytotoxicity rating ABUTH” value ([4]; 63 g ai/ha) was 100, the “phytotoxicity rating ABUTH” value ([4]; 250 g ai/ha) was 100 and the “phytotoxicity rating CASOB” value ([5]; 63 g ai/ha) was 80. For the same compound, the “phytotoxicity rating CASOB” value ([5]; 250 g ai/ha) was 100, the “phytotoxicity rating AMARE” value ([6]; 63 g ai/ha, rating scale 0-100 (0 no damage, 100 complete death)) was 100 and the “phytotoxicity rating AMARE” value ([6]; 250 g ai/ha, rating scale 0-100) was 100. For the same compound, the “phytotoxicity rating CHEAL” value ([7]; 63 g ai/ha) was 80, the “phytotoxicity rating CHEAL” value ([7]; 250 g ai/ha) was 100 and the “phytotoxicity rating ECHCG” value ([8]; 63 g ai/ha) was 20. The “phytotoxicity rating ECHCG” value ([8]; 250 g ai/ha) was 60, the “phytotoxicity rating SORHA” value ([9]; 63 g ai/ha) was 10 and the “phytotoxicity rating SORHA” value ([9]; 250 g ai/ha) was 50. For the same compound, the “phytotoxicity rating DIGSA” value ([10]; 63 g ai/ha) was 10, the “phytotoxicity rating DIGSA” value ([10]; 250 g ai/ha) was 40 and the “phytotoxicity rating SETVI” value ([11]; 63 g ai/ha) was 40. For the same compound, the “phytotoxicity rating SETVI” value ([11]; 250 g ai/ha) was 70, the “phytotoxicity rating IPOHE” value ([12]; 63 g ai/ha) was 100 and the “phytotoxicity rating IPOHE” value ([12]; 250 g ai/ha) was 100. For the same compound, the “phytotoxicity rating RICE (crop damage)” value ([13]; 63 g ai/ha) was 60, the “phytotoxicity rating RICE (crop damage)” value ([13]; 250 g ai/ha) was 80 and the “phytotoxicity rating CORN (crop damage)” value ([14]; 63 g ai/ha) was 35. The “phytotoxicity rating CORN (crop damage)” value ([14]; 250 g ai/ha) was 80, the “Pre-emerge Herbicidal Activity ABUTH” value ([15]; 63 g ai/ha) was 100 and the “Pre-emerge Herbicidal Activity ABUTH” value ([15]; 250 g ai/ha) was 100. For the same compound, the “Pre-emerge Herbicidal Activity CASOB” value ([16]; 63 g ai/ha) was 80, the “Pre-emerge Herbicidal Activity CASOB” value ([16]; 250 g ai/ha) was 100 and the “Pre-emerge Herbicidal Activity CHEAL” value ([17]; 63 g ai/ha) was 100. The “Pre-emerge Herbicidal Activity CHEAL” value ([17]; 250 g ai/ha) was 100, the “Pre-emerge Herbicidal Activity ECHCG” value ([18]; 63 g ai/ha) was 80 and the “Pre-emerge Herbicidal Activity ECHCG” value ([18]; 250 g ai/ha) was 95. For the same compound, the “Pre-emerge Herbicidal Activity SORHA” value ([19]; 63 g ai/ha) was 70, the “Pre-emerge Herbicidal Activity SORHA” value ([19]; 250 g ai/ha) was 90 and the “Pre-emerge Herbicidal Activity DIGSA” value ([20]; 63 g ai/ha) was 80. The “Pre-emerge Herbicidal Activity DIGSA” value ([20]; 250 g ai/ha) was 100, the “Pre-emerge Herbicidal Activity SETVI” value ([21]; 63 g ai/ha) was 80 and the “Pre-emerge Herbicidal Activity SETVI” value ([21]; 250 g ai/ha) was 100. For the same compound, the “Pre-emerge Herbicidal Activity IPOHE” value ([22]; 63 g ai/ha) was 100 and the “Pre-emerge Herbicidal Activity IPOHE” value ([22]; 250 g ai/ha) was 80.

Reference: patent US6355799B1, “Substituted benzene compounds, process for their preparation, and herbicidal and defoliant compositions containing them” (ISK Americas Incorporated, priority 1997, dated 2002)
